The values that follow come from patent US20250282768A1 (Janssen Pharmaceutica NV, priority 2022, published 2025).

The test system of the test is p-IKKa levels in L363 (NIK translocated multiple myeloma) cells. The experiment in a line: Assay 2: Effect of compounds on p-IKKa levels in L363 (NIK translocated multiple myeloma) cells. It is filed as cell-based. Conditions: Homo sapiens, L-363, 6 h, read-out: Assay 2 IC50 (nM), p-IKKa (Ser 176/180) in BAFF stimulated L363 cells with MG132, 6 h; average if tested more than once. The essentials: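 Read-out is p-IKKa Ser176/180 by AlphaLISA SureFire in lysates. Cells were BAFF-primed (250 ng/ml) overnight or left unstimulated, then exposed 6 h at 37 °C to compound with MG132 (10 μM), 0.3% DMSO. IC50 from sigmoidal curve fit, normalized between stimulated and unstimulated controls.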

The structures appear in SMILES notation.

With `CN1CC[C@@](O)(c2cc(-c3cccc(-c4ccnc(Nc5nn(C)c6ccncc56)n4)c3)no2)C1=O` [Example 420, (R)-3-Hydroxy-1-methyl-3-(3-(3-(2-((1-methyl-1H-pyrazolo[4,3-c]pyridin-3-yl)amino)pyrimidin-4-yl)phenyl)isoxazol-5-yl)pyrrolidin-2-one], the IC50 is greater than 500 nM.

For `CN1CC[C@@](O)(c2cc(-c3cccc(-c4ccnc(Nc5nn(C)c6ncccc56)n4)c3)no2)C1=O` [Example 421, (R)-3-Hydroxy-1-methyl-3-(3-(3-(2-((1-methyl-1H-pyrazolo[3,4-b]pyridin-3-yl)amino)pyrimidin-4-yl)phenyl)isoxazol-5-yl)pyrrolidin-2-one], the IC50 was greater than 500 nM.

As to `CN1CC[C@@](O)(c2cc(-c3cccc(-c4ccnc(Nc5nn(C)c6nccnc56)n4)c3)no2)C1=O` [Example 422, (R)-3-Hydroxy-1-methyl-3-(3-(3-(2-((1-methyl-1H-pyrazolo[3,4-b]pyrazin-3-yl)amino)pyrimidin-4-yl)phenyl)isoxazol-5-yl)pyrrolidin-2-one], the IC50 is greater than 500 nM.

`CN1CC[C@@](O)(c2cc(-c3cccc(-c4nc(Nc5cnn(C)c5)ncc4F)c3)no2)C1=O` [Example 423, (R)-3-(3-(3-(5-Fluoro-2-((1-methyl-1H-pyrazol-4-yl)amino)pyrimidin-4-yl)phenyl)isoxazol-5-yl)-3-hydroxy-1-methylpyrrolidin-2-one]: the IC50 was greater than 500 nM.

Turning to `CN1CC[C@@](O)(c2cc(-c3cccc(-c4nc(Nc5nn(C)cc5C#N)ncc4F)c3)no2)C1=O` [Example 424, (R)-3-((5-Fluoro-4-(3-(5-(3-hydroxy-1-methyl-2-oxopyrrolidin-3-yl)isoxazol-3-yl)phenyl)pyrimidin-2-yl)amino)-1-methyl-1H-pyrazole-4-carbonitrile], the IC50 was greater than 500 nM.

As to `CN1CC[C@@](O)(c2cc(-c3cccc(-c4nc(Nc5ccn(C)n5)ncc4F)c3)no2)C1=O` [Example 425, (R)-3-(3-(3-(5-Fluoro-2-((1-methyl-1H-pyrazol-3-yl)amino)pyrimidin-4-yl)phenyl)isoxazol-5-yl)-3-hydroxy-1-methylpyrrolidin-2-one], the IC50 was greater than 500 nM.

In the case of `CN1CC[C@@](O)(c2cc(-c3cccc(-c4ccnc(Nc5ccn(C)n5)n4)c3F)no2)C1=O` [Example 426, (R)-3-(3-(2-Fluoro-3-(2-((1-methyl-1H-pyrazol-3-yl)amino)pyrimidin-4-yl)phenyl)isoxazol-5-yl)-3-hydroxy-1-methylpyrrolidin-2-one], the IC50 was greater than 500 nM.

Consider `CN1CC[C@@](O)(c2cc(-c3cccc(-c4ccnc(Nc5cnn(C)c5)n4)c3F)no2)C1=O` [Example 427, (R)-3-(3-(2-Fluoro-3-(2-((1-methyl-1H-pyrazol-4-yl)amino)pyrimidin-4-yl)phenyl)isoxazol-5-yl)-3-hydroxy-1-methylpyrrolidin-2-one], for which the IC50 is greater than 500 nM.

As for `CN(C)Cc1cc(Nc2nccc(-c3cccc(-c4cc([C@]5(O)CCN(C)C5=O)on4)n3)n2)nn1C` [Example 428, (R)-3-(3-(6-(2-((5-((Dimethylamino)methyl)-1-methyl-1H-pyrazol-3-yl)amino)pyrimidin-4-yl)pyridin-2-yl)isoxazol-5-yl)-3-hydroxy-1-methylpyrrolidin-2-one], the IC50 lay within 50 to 500 nM.

`CN1CC[C@@](O)(c2cc(-c3cccc(-c4ccnc(Nc5cc6n(n5)CCNC6)n4)n3)no2)C1=O` [Example 430, (R)-3-Hydroxy-1-methyl-3-(3-(6-(2-((4,5,6,7-tetrahydropyrazolo[1,5-a]pyrazin-2-yl)amino)pyrimidin-4-yl)pyridin-2-yl)isoxazol-5-yl)pyrrolidin-2-one]: the IC50 fell in the range of 50 to 500 nM.

For `CN1CC[C@@](O)(c2cc(-c3cccc(-c4ccnc(Nc5cc6n(n5)CCN(CC(F)(F)F)C6)n4)n3)no2)C1=O` [Example 431, (R)-3-Hydroxy-1-methyl-3-(3-(6-(2-((5-(2,2,2-trifluoroethyl)-4,5,6,7-tetrahydropyrazolo[1,5-a]pyrazin-2-yl)amino)pyrimidin-4-yl)pyridin-2-yl)isoxazol-5-yl)pyrrolidin-2-one], the IC50 lay within 50 to 500 nM.

Turning to `CN1CC[C@@](O)(c2cc(-c3cccc(-c4ccnc(Nc5cc6n(n5)CCOC6)n4)n3)no2)C1=O` [Example 432, (R)-3-(3-(6-(2-((6,7-Dihydro-4H-pyrazolo[5,1-c][1,4]oxazin-2-yl)amino)pyrimidin-4-yl)pyridin-2-yl)isoxazol-5-yl)-3-hydroxy-1-methylpyrrolidin-2-one], the IC50 is less than 50 nM.

As for `CN1CC[C@@](O)(c2cc(-c3cccc(-c4ccnc(Nc5cnn6c5CN(CC5CC5)CC6)n4)n3)no2)C1=O` [Example 433, (R)-3-(3-(6-(2-((5-(Cyclopropylmethyl)-4,5,6,7-tetrahydropyrazolo[1,5-a]pyrazin-3-yl)amino)pyrimidin-4-yl)pyridin-2-yl)isoxazol-5-yl)-3-hydroxy-1-methylpyrrolidin-2-one], the IC50 was less than 50 nM.

Regarding `CN1CC[C@@](O)(c2cc(-c3cccc(-c4ccnc(Nc5cc(CN6CCOCC6)n(C)n5)n4)n3)no2)C1=O` [Example 434, (R)-3-Hydroxy-1-methyl-3-(3-(6-(2-((1-methyl-5-(morpholinomethyl)-1H-pyrazol-3-yl)amino)pyrimidin-4-yl)pyridin-2-yl)isoxazol-5-yl)pyrrolidin-2-one], the IC50 is 50 to 500 nM.

In the case of `CN1CC[C@@](O)(c2cc(-c3cccc(-c4ccnc(NCCC(F)(F)F)n4)n3)no2)C1=O` [Example 435, (R)-3-Hydroxy-1-methyl-3-(3-(6-(2-((3,3,3-trifluoropropyl)amino)pyrimidin-4-yl)pyridin-2-yl)isoxazol-5-yl)pyrrolidin-2-one], the IC50 was 50 to 500 nM.

In the case of `CN1CC[C@@](O)(c2cc(-c3cccc(-c4ccnc(N[C@H]5CCOC5)n4)n3)no2)C1=O` [Example 436, (R)-3-Hydroxy-1-methyl-3-(3-(6-(2-(((S)-tetrahydrofuran-3-yl)amino)pyrimidin-4-yl)pyridin-2-yl)isoxazol-5-yl)pyrrolidin-2-one], the IC50 was in the range of 50 to 500 nM.

Take `CN1CC[C@@](O)(c2cc(-c3cccc(-c4ccnc(NC5CC(F)(F)C5)n4)n3)no2)C1=O` [Example 439, (R)-3-(3-(6-(2-((3,3-Difluorocyclobutyl)amino)pyrimidin-4-yl)pyridin-2-yl)isoxazol-5-yl)-3-hydroxy-1-methylpyrrolidin-2-one]: the IC50 was in the range of 50 to 500 nM.

Consider `COC[C@H](C)Nc1nccc(-c2cccc(-c3cc([C@]4(O)CCN(C)C4=O)on3)n2)n1` [Example 440, (R)-3-Hydroxy-3-(3-(6-(2-(((S)-1-methoxypropan-2-yl)amino)pyrimidin-4-yl)pyridin-2-yl)isoxazol-5-yl)-1-methylpyrrolidin-2-one], for which the IC50 was 50 to 500 nM.

For `C[C@H](Nc1nccc(-c2cccc(-c3cc([C@]4(O)CCN(C)C4=O)on3)n2)n1)C1CC1` [Example 441, (R)-3-(3-(6-(2-(((S)-1-Cyclopropylethyl)amino)pyrimidin-4-yl)pyridin-2-yl)isoxazol-5-yl)-3-hydroxy-1-methylpyrrolidin-2-one], the IC50 was greater than 500 nM.

In the case of `CN1CC[C@@](O)(c2cc(-c3cccc(-c4ccnc(NC5(C)CC5)n4)n3)no2)C1=O` [Example 442, (R)-3-Hydroxy-1-methyl-3-(3-(6-(2-((1-methylcyclopropyl)amino)pyrimidin-4-yl)pyridin-2-yl)isoxazol-5-yl)pyrrolidin-2-one], the IC50 was in the range of 50 to 500 nM.
